Source: US11957684B2, “Treatment of heavy menstrual bleeding associated with uterine fibroids” (Sumitomo Pharma Switzerland GmbH, priority 2016, dated 2024)
“And” between values parts separate entries of the source, which are not always exact repeats. Equal entries are not always repeated.

System: heavy menstrual bleeding associated with uterine fibroids
Assay: Example 5A 12-week placebo-controlled study in uterine fibroids: efficacy (PBAC, volumes, NRS, UFS-QOL, anemia parameters)
Type: in vivo, human
Procedure: Study participants were Japanese women with HMB (heavy menstrual bleeding) associated with UF (uterine fibroids).
Only the largest myomas among those measurable at Visit 1 were measured throughout the study.
During the period between Visit 2 and 3, in which subjects must have experienced at least 1 regular menstrual cycle, the baseline values concerning efficacy evaluation, including PBAC scores and pain symptoms, were collected. The baseline PBAC score is the total PBAC score for the entire menstrual cycle immediately before Visit 3.
Visit 3 was on Days 1 to 5 of the second menstrual cycle after Visit 1. From Visits 3 to 7, subjects tried to visit the clinics in a fasted state and before taking the study drug.
When a dose was missed before breakfast, subjects took the study drug 30 minutes before either dinner or lunch on the same day.
Pain symptoms, other clinical symptoms and QOL were measured as secondary endpoints. Pain symptoms were evaluated in the patient diary from Visit 1 to the day before Visit 7 using the NRS score. The UFS-QOL score was used to evaluate other clinical symptoms and the QOL of subjects. Subjects completed the UFS-QOL questionnaire at Visits 3, 5, 6 and 7.
In particular, FIGS. 50-52 tabulate hemoglobin concentrations; FIG. 53 tabulates hematocrit percentages; FIG. 54 tabulates serum iron concentrations; and FIG. 55 tabulates ferritin concentrations.
PBAC scores were used in Example 5A, and provide an estimate of menstrual blood loss volume. The PBAC score was evaluated by having subjects record details related to menstrual blood loss on a PBAC score sheet distributed by the sponsor during the treatment period. […] These items represent the level of stained sanitary materials over the course of a menstrual cycle, with a total score ranging from 0 (none) to infinity. Higher scores indicate heavier blood loss. The PBAC score sheet also allows subjects to indicate: whether they experienced bleeding between periods that required sanitary protection; whether they passed clots, and if so, approximate size of the clots; whether they experienced episodes of flooding; and whether they required double protection (used both a pad and tampon simultaneously). As used in the PBAC score sheet of Example 5A, flooding is defined as overflowing, or staining, of clothing or underwear due to menstrual bleeding.
The total PBAC score was derived by summing points for each of the above.
All myoma and uterine volumes referred to herein were evaluated using transvaginal ultrasound. Specifically, the myoma volumes were calculated using the following formula: D1×D2×D3×π/6, where D1 is the longest diameter of the myoma; D2 is the longest diameter of the myoma at an angle perpendicular to D1; and D3 is the diameter of the myoma crossing the intersection of D1 and D2 perpendicular to the D1/D2 plane.

[1] = 20 mg, Week 12, listed as Relugolix
[2] = 40 mg, Week 6-12, listed as Relugolix
[3] = 40 mg, Week 12, listed as Relugolix

## CONC(=O)Nc1ccc(-c2sc3c(c2CN(C)C)c(=O)n(-c2ccc(OC)nn2)c(=O)n3Cc2c(F)cccc2F)cc1 [Compound 1, N-(4-(1-(2,6-difluorobenzyl)-5-((dimethylamino)methyl)-3-(6-methoxy-3-pyridazinyl)-2,4-dioxo-1,2,3,4-tetrahydrothieno[2,3-d]pyrimidin-6-yl)phenyl)-N′-methoxyurea]
20 mg, Week 8
  UFS-QOL HRQL total score: 9.54±10.904
  UFS-QOL symptom severity score: 18.53±13.304
  ferritin value: 16.34 ± 15.659 ng/mL
  myoma volume: 86.34±103.084 cm^3
  uterine volume: 290.93±413.549 cm^3
20 mg, Week 12
  Fe value (serum iron): 85.7 ± 44.40 µg/dL
  Ht value: 40.54±3.003%
  UFS-QOL HRQL total score: 9.63±12.735
  UFS-QOL HRQL total, change from baseline: −2.11±10.529
  UFS-QOL symptom severity score: 16.56±14.024
  UFS-QOL symptom severity, change from baseline: −8.97±15.530
  change of Fe value from baseline: 24.7 ± 53.53 µg/dL
  change of Hb from baseline: 0.83 ± 1.161 g/dL
  change of Ht value from baseline: 2.31±3.522%
  change of ferritin value from baseline: 3.50 ± 10.229 ng/mL
  ferritin value: 18.03 ± 14.427 ng/mL
  myoma volume: 75.09±89.699 cm^3
  percent change of myoma volume from baseline: −36.69±32.631%
  percent change of uterine volume from baseline: −27.70±28.787%
  uterine volume: 259.44±322.759 cm^3
[1]
  UFS-QOL HRQL total, change from baseline: −2
  UFS-QOL symptom severity, change from baseline: −9
  change of Hb from baseline: 0.8 g/dL
  percent change of myoma volume from baseline: −37%
  percent change of uterine volume from baseline: −28%
40 mg (n = 55)
  Amenorrhea (PBAC from Week 6 to 12 was 0), number of patients: 40 n
40 mg, Week 2
  myoma volume: 109.29±132.534 cm^3
  uterine volume: 293.51±288.596 cm^3
40 mg, Week 2-6
  NRS score: 0.29±0.564
  subjects who achieved amenorrhea (PBAC = 0): 54.5%
  subjects with total PBAC score <10: 65.5%
40 mg, Week 2-12
  NRS score: 0.27±0.535
  subjects with total PBAC score <10: 61.8%
40 mg, Week 4
  Fe value (serum iron): 77.6 ± 44.81 µg/dL
  Ht value: 39.44±4.012%
  UFS-QOL HRQL total score: 11.31±12.082
  UFS-QOL symptom severity score: 24.10±16.141
  ferritin value: 15.14 ± 15.133 ng/mL
  myoma volume: 100.04±139.060 cm^3
  uterine volume: 267.74±275.256 cm^3
40 mg, Week 6-12
  NRS score: 0.25±0.542
  change of total PBAC score from baseline: −238.7±203.34
  subjects who achieved amenorrhea (PBAC = 0): 72.7% and 73%
  subjects with total PBAC score <10: 83.6%
  total PBAC score (mean±SD): 21.3±56.11
[2]
  NRS score: 0.2
  subjects who achieved amenorrhea (PBAC = 0): (72.7) %
40 mg, Week 8
  Fe value (serum iron): 78.2 ± 41.91 µg/dL
  Ht value: 40.23±3.620%
  UFS-QOL HRQL total score: 11.20±12.279
  UFS-QOL symptom severity score: 18.08±15.187
  ferritin value: 18.10 ± 16.177 ng/mL
  myoma volume: 86.01±120.639 cm^3
  uterine volume: 224.91±227.442 cm^3
40 mg, Week 12
  Fe value (serum iron): 82.0 ± 36.93 µg/dL
  Ht value: 40.53±3.307%
  UFS-QOL HRQL total score: 9.52±10.885
  UFS-QOL HRQL total, change from baseline: −5.52±15.871
  UFS-QOL symptom severity score: 14.05±15.272
  UFS-QOL symptom severity, change from baseline: −11.25±17.274
  change of Fe value from baseline: 25.5 ± 44.43 µg/dL
  change of Hb from baseline: 0.92 ± 1.183 g/dL
  change of Ht value from baseline: 2.46±3.445%
  change of ferritin value from baseline: 8.91 ± 13.131 ng/mL
  ferritin value: 21.84 ± 21.509 ng/mL
  myoma volume: 77.88±110.873 cm^3
  percent change of myoma volume from baseline: −38.59±34.197%
  percent change of uterine volume from baseline: −40.90±37.233%
  uterine volume: 208.03±209.312 cm^3
[3]
  UFS-QOL HRQL total, change from baseline: −6
  UFS-QOL symptom severity, change from baseline: −11
  change of Hb from baseline: 0.9 g/dL
  percent change of myoma volume from baseline: −39%
  percent change of uterine volume from baseline: −41%
